# Tested on: Human epidermal keratinocytes (HEKn)
# Assay: Gene expression of differentiation markers, quantitative RT-PCR
# Type: cell-based
# Details: 8 h, FIG. 7A, compared to 20S(OH)D3
# Experimental: RNA isolation and reverse transcription were performed as described previously (Slominski A T, et. al., (2021) Sci Rep 11(1) 8002). Quantitative RT-PCR was carried out using Sybr green Master Mix (Thermo Scientific, Waltham, MA), in triplicates as previously described (Slominski A T, et. al., (2021) Sci Rep 11(1) 8002; Janjetovic Z, et. al., (2014) J Pineal Res 57(1) 90-102). Human epidermal keratinocytes (HEKn) isolated from foreskin of white neonates were cultured until the third passage before treatment as described in the literature (Chaiprasongsuk A, et. al., (2019) Redox Biol 24 101206; Janjetovic Z, et. al., (2009) PloS one 4(6) e5988). Cells were treated with vitamin D3 derivatives for 8 h or 24 h and harvested for RNA isolation. Approximately 300 ng of RNA was used for cDNA synthesis and an equal amount of cDNA was used for PCR reactions. Cyclophilin B or GAPDH was used as an internal control. Primers sequences are listed in (Chaiprasongsuk A, et. al., (2020) Free Radic Biol Med 155 87-9845, Slominski A T, et. al., (2017) Sci Rep 7(1) 11434). Reactions were done in triplicate.
# Referring to FIG. 7A-D, stimulation of keratinocyte differentiation by 20S(OH)D3, 20S,25(OH)2D3, 20S,23S(OH)2D3 and 20S,23R(OH)2D3 in comparison to 1α,25(OH)2D3. […]
compound,measurement,value
"C=C1CC[C@H](O)C/C1=C/C=C1\CCC[C@@]2(C)[C@H]1CC[C@@H]2[C@@](C)(O)CCCC(C)(C)O [20S,25(OH)2D3, (20S)-20,25-Dihydroxyvitamin D3]","gene expression of involucrin, CK10, and filaggrin","slightly better at inducing gene expression of involucrin, CK10, and filaggrin"

# Source: US20240327320A1, “NOVEL ROUTES OF CHEMICAL SYNTHESIS OF 20S(OH)D3, 20S,25(OH)2D3, 20S,23S(OH)2D3, AND 20S,23R(OH)2D3 AND THEIR MODIFICATION OF THE IMMUNE ACTIVITY OF PBMCS” (United State Government as represen ted by the Department …, priority 2023, published 2024)
